For 63 molecules, EC50 results are on record in patent US12162867B2, “Inhibitors of RNA helicase DHX9 and uses thereof” (ACCENT THERAPEUTICS, INC., priority 2022, dated 2024).

For the first test, the system named is circBRIP1 in HCT116 cells. Description: DHX9 circBRIP1 cellular target engagement SYBR Green assay (qPCR). It is filed as cell-based. The conditions noted are these: Homo sapiens, HCT-116, circBRIP1, HCT116 cells; SyBr assay (marked ^+); read-out: DHX9 Cellular Target Engagement EC50.
In general, EC50 refers to the midpoint of the concentration-response curve. `CS(=O)(=O)Nc1cc(Cl)cc(NC(=O)c2cnn(-c3cc(N4CCNCC4)ccn3)c2)c1` [Example 147]: the EC50 was determined as 834 nM.

With `CS(=O)(=O)Nc1cc(Cl)cc(NC(=O)c2cnn(C3CCCC3)c2)c1` [Example 309], the EC50 is 3730 nM. Consider `Cc1cccnc1-c1cc(C(=O)Nc2cc(F)cc(NS(C)(=O)=O)c2)sc1C` [Example 333], for which the EC50 stood at 421 nM. Same read-out and setting: as for `CC1(C)CC(n2cc(C(=O)Nc3cc(Cl)cc(NS(C)(=O)=O)c3)cn2)CCN1` (stereo not drawn) [Example 315], the figure is more than 10000 nM; as for `CS(=O)(=O)Nc1cc(Br)cc(NC(=O)c2cnn(-c3ncccn3)c2)c1` [Example 50, N-(3-bromo-5-(methylsulfonamido)phenyl)-1-(pyrimidin-2-yl)-1H-pyrazole-4-carboxamide], 895 nM. For `Cc1ccc2sc(C(=O)Nc3cc(Cl)cc(NS(C)(=O)=O)c3)cc2c1` [Example 331], the EC50 was determined as 3750 nM. On to `CS(=O)(=O)Nc1cc(Cl)cc(NC(=O)c2cn(-c3ccccc3)cn2)c1` [Example 1, N-(3-chloro-5-(methylsulfonamido)phenyl)-1-phenyl-1H-imidazole-4-carboxamide], for which the concentration for a half-maximal effect (EC50) worked out at 16400 nM.

`CS(=O)(=O)Nc1cc(Cl)cc(NC(=O)c2cc(-c3ncccc3CC(=O)N3CCCC3)cs2)c1` [Example 383]: the EC50 came out at 557 nM. Turning to `CS(=O)(=O)Nc1cc(Cl)cc(NC(=O)c2cnn(-c3ncccc3OCc3ccccc3)c2)c1` [Example 68], the EC50 turned out to be 278 nM.

As to `CCS(=O)(=O)Nc1cc(F)cc(NC(=O)c2cc(-c3ccccc3)cs2)c1` [Example 74], the EC50 is 8320 nM.

Regarding `CN(C)S(=O)(=O)c1ccc(-n2cc(C(=O)Nc3cc(Cl)cc(NS(C)(=O)=O)c3)cn2)nc1` [Example 200], the EC50 was found to be 1310 nM.

Turning to `CS(=O)(=O)Nc1cc(Cl)cc(NC(=O)c2cnn(C3CCN(CC(F)(F)F)CC3)c2)c1` [Example 316], the EC50 was 4920 nM.

For `Cc1cccn2cc(C(=O)Nc3cc(Cl)cc(NS(C)(=O)=O)c3)cc12` [Example 329], the EC50 worked out at 4980 nM. Still for that read-out and setting: as for `CC(=O)N1CC2(CC(n3cc(C(=O)Nc4cc(Cl)cc(NS(C)(=O)=O)c4)cn3)C2)C1` [Example 313], the figure is more than 10000 nM; as for `CS(=O)(=O)Nc1cc(Cl)cc(NC(=O)c2cnn([C@H]3CC[C@H](O)CC3)c2)c1` (single isomer, unassigned) [Example 154], more than 10000 nM; as for `CC(=O)N1CCN(c2ccnc(-n3cc(C(=O)Nc4cc(Cl)cc(NS(C)(=O)=O)c4)cn3)c2)CC1` [Example 148, 1-[4-(4-acetylpiperazin-1-yl)pyridin-2-yl]-N-(3-chloro-5-methanesulfonamidophenyl)-1H-pyrazole-4-carboxamide], 4340 nM. With `CS(=O)(=O)Nc1cc(Cl)cc(NC(=O)c2cnn(C3CC4(CC(N)C4)C3)c2)c1` (stereo not drawn) [Example 319], the EC50 was more than 10000 nM. Take `CS(=O)(=O)Nc1cc(Cl)cc(NC(=O)c2cc3cc(Cl)ccc3s2)c1` [Example 298]: the EC50 was more than 10000 nM.

`CS(=O)(=O)Nc1cc(Cl)cc(NC(=O)c2coc(-c3ccccc3)c2)c1` [Example 125]: the EC50 turned out to be 16100 nM. The same measure, in the same setting: as for `CS(=O)(=O)Nc1cc(Br)cc(NC(=O)c2cnn(-c3ccc(C#N)cn3)c2)c1` [Example 41], the figure is 4340 nM; as for `COc1cccc2sc(C(=O)Nc3cc(Cl)cc(NS(C)(=O)=O)c3)cc12` [Example 321], 241 nM. In the case of `Cc1cccnc1-n1cc(C(=O)Nc2cc(Cl)cc(NS(C)(=O)=O)c2)cn1` [Example 54], the half-maximal effective concentration (EC50) is 953 nM. As to `CN(c1ncccn1)c1cccnc1-c1csc(C(=O)Nc2cc(Cl)cc(NS(C)(=O)=O)c2)c1` [Example 238], the EC50 was determined as 289 nM. Regarding `CS(=O)(=O)Nc1cc(Cl)cc(NC(=O)c2cc(N3CCN(CC(F)(F)F)CC3)cs2)c1` [Example 246], the EC50 came to 3930 nM. Regarding `CCS(=O)(=O)Nc1cc(Cl)cc(NC(=O)c2cc(-c3ncc(F)cc3C)cs2)c1` [Example 226], the EC50 was found to be 388 nM. Consider `CS(=O)(=O)Nc1cc(Cl)cc(NC(=O)c2cnn(C3CCNCC3)c2)c1` [Example 145, N-(3-chloro-5-(methylsulfonamido)phenyl)-1-(piperidin-4-yl)-1H-pyrazole-4-carboxamide], for which the EC50 was more than 10000 nM. With `CS(=O)(=O)Nc1cc(Cl)cc(NC(=O)c2cc3ccccn3c2)c1` [Example 209], the concentration giving a half-maximal response (EC50) is 3460 nM. For the molecule `Cc1cccc(C#N)c1-n1cc(C(=O)Nc2cc(Br)cc(NS(C)(=O)=O)c2)cn1` [Example 44], the EC50 was 4190 nM.

Regarding `CS(=O)(=O)Nc1cc(Cl)cc(NC(=O)c2cnn(-c3ncccc3OCc3c[nH]cn3)c2)c1` [Example 254], the EC50 was 578 nM.

`CN1CCN(c2ccc(-n3cc(C(=O)Nc4cc(Br)cc(NS(C)(=O)=O)c4)cn3)nc2)CC1=O` [Example 88]: the EC50 was more than 10000 nM. `COc1ccc(-n2cc(C(=O)Nc3cc(Cl)cc(NS(C)(=O)=O)c3)cn2)nc1` [Example 197]: the EC50 worked out at 2370 nM. With `CCn1cc(C(=O)Nc2cc(Cl)cc(NS(C)(=O)=O)c2)cc1-c1ccc(N2CCOCC2)cn1` [Example 274], the EC50 was 97.9 nM. Take `CS(=O)(=O)Nc1cc(Cl)cc(NC(=O)c2cnn(-c3ncccc3COc3cncc(F)c3)c2)c1` [Example 262]: the EC50 was found to be 439 nM. On to `Cc1cc(C(=O)Nc2cc(Cl)cc(NS(C)(=O)=O)c2)cn1C1CCCC1` [Example 282], for which the EC50 came to 1880 nM. For `CS(=O)(=O)Nc1cc(Cl)cc(NC(=O)c2cnn(-c3c(F)cccc3OCc3cccc(F)c3)c2)c1` [Example 211], the EC50 worked out at 189 nM. For `CS(=O)(=O)Nc1cc(Cl)cc(NC(=O)c2cnn(-c3ncc(F)cc3OCc3cccc(C#N)c3)c2)c1` [Example 203], the EC50 is 341 nM. As to `CS(=O)(=O)Nc1cc(Cl)cc(NC(=O)c2cnn(C3CC4CCC(C3)O4)c2)c1` (stereo not drawn) [Example 250], the concentration giving a half-maximal response (EC50) is 3550 nM.

For `CN1CCN(c2cnc(-n3cc(C(=O)Nc4cc(Cl)cc(NS(C)(=O)=O)c4)cn3)nc2)CC1=O` [Example 183], the EC50 is more than 10000 nM. For `CS(=O)(=O)Nc1cc(Cl)cc(NC(=O)c2cnn(-c3ncccc3OCc3ncc[nH]3)c2)c1` [Example 252], the EC50 is 1790 nM. Still for that read-out and setting: as for `CS(=O)(=O)Nc1cc(Cl)cc(NC(=O)c2cc(-c3ncccc3C(F)(F)F)cs2)c1` [Example 223], the figure is 421 nM. As to `COC(=O)[C@@H]1CCCN1c1csc(C(=O)Nc2cc(Cl)cc(NS(C)(=O)=O)c2)c1` [Example 242], the EC50 is 5020 nM. Take `Cc1cnc(-n2cc(C(=O)Nc3cc(Cl)cc(NS(C)(=O)=O)c3)cn2)c(OCc2cnco2)c1` [Example 261]: the EC50 turned out to be 1530 nM. On the same count and under the same terms, as for `Cc1sc(C(=O)Nc2cc(Cl)cc(NS(C)(=O)=O)c2)cc1-c1ncccc1CC(=O)N(C)C` [Example 385], the figure is 1330 nM. For `Cc1sc(C(=O)Nc2cc(Cl)cc(NS(C)(=O)=O)c2)cc1-c1cn(-c2ccccc2)nn1` [Example 236], the EC50 amounted to 106 nM. `CS(=O)(=O)Nc1cc(Cl)cc(NC(=O)c2cnn(-c3cnc(N4CCOCC4)cn3)c2)c1` [Example 388]: the EC50 was determined as 6530 nM. Regarding `CS(=O)(=O)Nc1cc(Cl)cc(NC(=O)c2cnn(CCCO)c2)c1` [Example 126, N-(3-chloro-5-(methylsulfonamido)phenyl)-1-(3-hydroxypropyl)-1H-pyrazole-4-carboxamide], the EC50 was more than 10000 nM. As to `CP(C)(=O)c1cccnc1-n1cc(C(=O)Nc2cc(Cl)cc(NS(C)(=O)=O)c2)cn1` [Example 201], the EC50 was more than 10000 nM. Take `CS(=O)(=O)Nc1cc(Br)cc(NC(=O)c2cnn(-c3cccc(C(F)F)n3)c2)c1` [Example 56]: the EC50 is 7430 nM.

The same test, now with this note: Homo sapiens, HCT-116, circBRIP1, HCT116 cells; ^+ SyBr assay was used; read-out: DHX9 Cellular Target Engagement EC50.
In the case of `Cc1sc(C(=O)Nc2cc(Cl)cc(NS(C)(=O)=O)c2)cc1-c1ncc(F)cc1-c1ccc(=O)n(C)c1` [Example 606], the EC50 came out at 1510 nM. On the same count and under the same terms, as for `Cc1cc(C(=O)Nc2cc(Cl)cc(NS(C)(=O)=O)c2)cn1-c1ccc(C#N)cn1` [Example 425], the figure is 193 nM; as for `Cc1sc(C(=O)Nc2cc(Cl)cc(NS(C)(=O)=O)c2)cc1N1C(=O)N(c2ccccn2)C(C)(C)C1=O` [Example 685], 769 nM. `CS(=O)(=O)Nc1cc(Cl)cc(NC(=O)c2cnn(-c3ccccc3COc3cncc(F)c3)c2)c1` [Example 428]: the EC50 came out at 201 nM.

As to `Cc1cc(C(=O)Nc2cc(Cl)cc(NS(C)(=O)=O)c2)cn1-c1ncc(S(C)(=O)=O)cn1` [Example 656], the half-maximal effective concentration (EC50) was 239 nM. On to `Cn1cc(C(=O)Nc2cc(Cl)cc(NS(C)(=O)=O)c2)cc1-c1ccc(C(F)(F)F)cn1` [Example 569], for which the EC50 is 146 nM. As for `CC(C)(C)OC(=O)N1CC(n2cc(C(=O)Nc3cc(Cl)cc(NS(C)(=O)=O)c3)cc2-c2ncc(F)cn2)C1` [Example 645], the EC50 came out at 1260 nM.

As to `CS(=O)(=O)Nc1cc(Cl)cc(NC(=O)c2cnn(-c3ncccc3Oc3cccnc3)c2)c1` [Example 676], the EC50 is 806 nM. As for `CS(=O)(=O)Nc1cc(Cl)cc(NC(=O)c2cnn(-c3ncc(F)cc3OCc3cnco3)c2)c1` [Example 719], the EC50 was 2280 nM.

On to `CS(=O)(=O)Nc1cc(Cl)cc(NC(=O)c2cc(-c3ccc(F)cn3)n(CCO)c2)c1` [Example 689], for which the 50% effective concentration (EC50) came out at 340 nM. The same measure, in the same setting: as for `Cc1cc(C(=O)Nc2cc(Cl)cc(NS(C)(=O)=O)c2)cn1-c1ncc(N2CCOCC2)cc1F` [Example 412], the figure is 96.1 nM; as for `CC(C)(O)c1cc(C(=O)Nc2cc(Cl)cc(NS(C)(=O)=O)c2)cn1-c1ccccn1` [Example 650], 859 nM. Regarding `CS(=O)(=O)Nc1cc(Cl)cc(NC(=O)c2cnn(-c3ncccc3Oc3cccc(F)c3)c2)c1` [Example 427], the EC50 came out at 305 nM. On the same count and under the same terms, as for `Cc1cc(C(=O)Nc2cc(Cl)cc(NS(C)(=O)=O)c2)cn1-c1ncc(OC2COC2)cn1` [Example 669], the figure is 124 nM.

The test is the same for the next values; noted with them: Homo sapiens, HCT-116, read-out: DHX9 Cellular Target Engagement EC50.
As to `CS(=O)(=O)Nc1cc(F)cc(NC(=O)c2cc(Br)cs2)c1` [Example 71, 4-bromo-N-(3-fluoro-5-(methylsulfonamido)phenyl)thiophene-2-carboxamide], the EC50 is 26300 nM.
